# “And” between values parts separate entries of the source, which are not always exact repeats. Equal values may be shown once.
# What was measured:
# [1] = high dosage long-term oral administration; cited from earlier work
# E. coli [2] = assay: Inhibitory effect of EGCg on biofilm formation on polyurethane discs (static, plate count); assay type: cell-based; conditions: E. coli 2×10^3 CFU/ml, 37 degrees Celsius, 24 hours, listed as epigallocatechin gallate (EGCg)
# Protocol: 8 mm diameter disc shaped polyurethanes were cultured with an E. coli suspension (2×10^3 CFU/ml) which was mixed with various concentrations of epigallocatechin gallate (EGCg) (0-0.2 mM) under a static condition at 37 degrees Celsius for 24 hours in a culture plate. After incubations, the polyurethane discs were taken out, and having been washed in a phosphate buffer gently, they were moved to a 2 ml phosphate buffer, where they were sonicated to detach the adhered E. coli. Viable E. coli cell counts in the liquid were calculated by the plate count method.
# E. coli [3] = conditions: comparison among catechins; cited from earlier work
# E. coli [4] = assay: Sensitivity of E. coli to EGCg (dilution method, MIC); assay type: cell-based; conditions: E. coli 1×10^7 CFU/ml, 37 degrees Celsius, 24 hours, static
# Protocol: Sensitivity of E. coli to EGCg was examined by a general sensibility test method (dilution method). E. coli suspensions (1×10^7 CFU/ml), in which gradually diluted (0.16, 0.31, 0.63, 1.25, 2.5, 5.0 mM) epigallocatechin gallate (EGCg) solutions were mixed, were placed in a culture plate and incubated at 37 degrees Celsius for 24 hours under a static condition. Minimal inhibitory concentration (MIC) was defined as the smallest EGCg concentration in which no bacteria growth is recognized macroscopically.
# E. coli in biofilm = assay: Effect of EGCg on living microbes after biofilm formation; assay type: cell-based; conditions: 24 hours biofilm, then 24 hours exposure; listed as epigallocatechin gallate (EGCg)
# Protocol: Biofilms were formed on polyurethane surfaces after incubating 8 mm diameter polyurethane discs placed in a culture plate with an E. coli suspension (2×10^3 CFU/ml) under a static condition at 37 degrees Celsius for 24 hours. After adding solutions with various degrees of epigallocatechin gallate (EGCg) concentration (0-50 mM) to the biofilm surfaces that were formed, they were exposed for another 24 hours. After the polyurethane discs were taken out, and washed with a phosphate buffer solution gently, they were moved to a 2 ml phosphate buffer solution and sonicated to detach adhered E. coli. Viable E. coli cell count in this liquid was counted by the plate count method. […] These levels of concentration are much higher compared to the Example 1 where catechin was placed from the beginning of incubation.
smiles,measurement,setting,value
"O=C(O[C@@H]1Cc2c(O)cc(O)cc2O[C@@H]1c1cc(O)c(O)c(O)c1)c1cc(O)c(O)c(O)c1 [EGCg, epigallocatechin gallate]",side effects / safety to the human body,[1],no side effect has been reported
same,concentration at which biofilm formation is inhibited completely,E. coli [2],≥ 0.15 mM and ≥ 0.069 mg/ml
same,concentration at which biofilm formation is inhibited significantly,E. coli [2],≥ 0.12 mM and ≥ 0.055 mg/ml
same,"antibacterial action / minimal inhibitory concentration against E. coli, among the catechins",E. coli [3],smallest minimal inhibitory concentration against E. coli
same,minimal inhibitory concentration (MIC),E. coli [4],0.63 mM and 287 μg/ml
same,concentration at which E. coli in biofilm were exterminated completely,E. coli in biofilm,50 mM and 23 mg/ml
same,concentration at which viable cell counts in formed biofilm decreased significantly,E. coli in biofilm,≥ 8 mM and ≥ 3.7 mg/ml
